Experimental data taken from patent US20070128217A1 (priority 2003, published 2007).

Columns and labels:
[1] = system: rabbit serum obtained by immunizing a rabbit with the SARS-CoV strain Frankfurt 1; type: binding; parameters: Binding of a rabbit serum to linear peptides / Binding of a rabbit serum to looped peptides / Rabbit serum linear peptides / Rabbit serum looped peptides / Binding of a rabbit serum to linear peptides of protein N of SARS-CoV Urbani (Rabbit serum linear peptides) / Binding of a rabbit serum to looped/cyclic peptides of protein N of SARS-CoV Urbani (Rabbit serum looped peptides): unit not given here
[2] = system: recombinant human anti-SARS-CoV antibody 03-018; type: binding; parameters: Binding of antibody 03-018 to linear peptides of the N protein of SARS-CoV Urbani / Binding of antibody 03-018 to looped/cyclic peptides of the N protein of SARS-CoV Urbani: unit not given here
[3] = system: control sera (pooled serum of ten healthy LUMC hospital workers; commercial negative donor pooled serum from the Dutch bloodbank); type: binding, human; parameters: Binding of Control serum LUMC to linear peptides / Binding of Control serum Blood-bank to linear peptides / Binding of Control serum LUMC to looped peptides / Binding of Control Serum Blood-Bank to Looped peptides / Binding of Control serum LUMC to linear peptides of the protein M of SARS-CoV Urbani / Binding of Control serum Blood-bank to linear peptides of the protein M of SARS-CoV Urbani / Binding of Control serum LUMC to looped peptides of the protein M of SARS-CoV Urbani / Binding of Control Serum Blood-Bank to Looped peptides of the protein M of SARS-CoV Urbani: unit not given here
[4] = system: antibodies in sera from SARS patients (sera 1a, 1b, 2, 6, 37, 62, London, SARS-yellow, SARS-green); type: binding, human; parameters: Binding of serum 6 to linear peptides of protein X1 of SARS-CoV Urbani / Binding of serum 37 to linear peptides of protein X1 of SARS-CoV Urbani / Binding of serum 6 to looped/cyclic peptide (PEPSCAN-ELISA) / Binding of serum 37 to looped/cyclic peptide (PEPSCAN-ELISA) / Binding of serum 37 to looped/cyclic peptides of protein X1 of SARS-CoV Urbani / Binding of serum 6 to linear peptides of protein X2 / Binding of serum 37 to linear peptides of protein X2 / Binding of serum 37 to looped/cyclic peptides of protein X2 of SARS-CoV Urbani / Binding of serum 6 to linear peptides of protein M of SARS-CoV Urbani / Binding of serum 37 to linear peptides of protein M of SARS-CoV Urbani / Binding of serum 6 to looped/cyclic peptides of protein M of SARS-CoV Urbani / Binding of serum 37 to looped/cyclic peptides of protein M of SARS-CoV Urbani / Binding of serum 6 to linear peptides of protein X3 of SARS-CoV Urbani / Binding of serum 37 to linear peptides of protein X3 of SARS-CoV Urbani / Binding of serum 37 to looped/cyclic peptides of protein X3 of SARS-CoV Urbani / Binding of serum 6 to linear peptides of protein X4 of SARS-CoV Urbani / Binding of serum 37 to linear peptides of protein X4 of SARS-CoV Urbani / Binding of serum 37 to looped/cyclic peptides of protein X4 of SARS-CoV Urbani / Binding of serum 6 to linear peptides of protein X5 of SARS-CoV Urbani / Binding of serum 37 to linear peptides of protein X5 of SARS-CoV Urbani / Binding of serum 37 to looped/cyclic peptides of protein X5 of SARS-CoV Urbani / Binding of serum 6 to linear peptides of protein N of SARS-CoV Urbani / Binding of serum 37 to linear peptides of protein N of SARS-CoV Urbani / Binding of serum 6 to linear peptide (PEPSCAN-ELISA) / Binding of serum 1a to looped/cyclic peptides of protein N of SARS-CoV Urbani / Binding of serum 1b to looped/cyclic peptides of protein N of SARS-CoV Urbani / Binding of serum 2 to looped/cyclic peptides of protein N of SARS-CoV Urbani / Binding of serum 6 to looped/cyclic peptides of protein N of SARS-CoV Urbani / Binding of serum 37 to looped/cyclic peptides of protein N of SARS-CoV Urbani / Binding of serum 62 to looped/cyclic peptides of protein N of SARS-CoV Urbani / Binding of serum London to looped/cyclic peptides of protein N of SARS-CoV Urbani / Binding of serum SARS-green to looped/cyclic peptides of protein N of SARS-CoV Urbani: unit not given here

| Sequence | Binding of a rabbit serum to linear peptides of protein N of SARS-CoV Urbani (Rabbit serum linear peptides) [1] | Binding of a rabbit serum to looped/cyclic peptides of protein N of SARS-CoV Urbani (Rabbit serum looped peptides) [1] | Binding of antibody 03-018 to linear peptides of the N protein of SARS-CoV Urbani [2] | Binding of antibody 03-018 to looped/cyclic peptides of the N protein of SARS-CoV Urbani [2] | Binding of Control Serum Blood-Bank to Looped peptides [3] | Binding of Control serum Blood-bank to linear peptides [3] | Binding of Control serum LUMC to linear peptides [3] | Binding of Control serum LUMC to looped peptides [3] | Binding of serum 1a to looped/cyclic peptides of protein N of SARS-CoV Urbani [4] | Binding of serum 1b to looped/cyclic peptides of protein N of SARS-CoV Urbani [4] | Binding of serum 2 to looped/cyclic peptides of protein N of SARS-CoV Urbani [4] | Binding of serum 6 to looped/cyclic peptides of protein N of SARS-CoV Urbani [4] | Binding of serum 37 to looped/cyclic peptides of protein N of SARS-CoV Urbani [4] | Binding of serum 62 to looped/cyclic peptides of protein N of SARS-CoV Urbani [4] | Binding of serum London to looped/cyclic peptides of protein N of SARS-CoV Urbani [4] | Binding of serum SARS-green to looped/cyclic peptides of protein N of SARS-CoV Urbani [4] | Binding of serum SARS-yellow to looped/cyclic peptides of protein N of SARS-CoV Urbani [4] | Binding of serum 1a to linear peptides of protein N of SARS-CoV Urbani [4] | Binding of serum 1b to linear peptides of protein N of SARS-CoV Urbani [4] | Binding of serum 2 to linear peptides of protein N of SARS-CoV Urbani [4] | further results |
| --- | --- | --- | --- | --- | --- | --- | --- | --- | --- | --- | --- | --- | --- | --- | --- | --- | --- | --- | --- | --- | --- |
| LPKGFYAEGSRGGSQ | 0.1 | 0.1 | 0.1 | 0.2 | 0.6 | 0.6 | 0.6 | 0.5 | 0.3 | 0.2 | 0.3 | 0.2 | 0.5 | 0.4 | 0.4 | 0.3 | 0.2 | – | – | – | Binding of serum 1a to linear peptide (PEPSCAN-ELISA) [4]: 0.2; Binding of serum 1b to linear peptide (PEPSCAN-ELISA) [4]: 0.1; Binding of serum 2 to linear peptide (PEPSCAN-ELISA) [4]: 0.2; Binding of serum 6 to linear peptide (PEPSCAN-ELISA) [4]: 0.1; Binding of serum 37 to linear peptide (PEPSCAN-ELISA) [4]: 0.6; Binding of serum 62 to linear peptide (PEPSCAN-ELISA) [4]: 0.6; Binding of serum London to linear peptide (PEPSCAN-ELISA) [4]: 0.4; Binding of serum SARS-green to linear peptide (PEPSCAN-ELISA) [4]: 0.2; Binding of serum SARS-yellow to linear peptide (PEPSCAN-ELISA) [4]: 0.5 |
| LPNNTASWFTALTQH | 0.1 | 0.6 | 0.1 | 0.3 | 0.8 | 0.7 | 0.7 | 0.7 | 0.4 | 0.3 | 0.4 | 0.3 | 0.8 | 0.7 | 0.3 | 0.7 | 0.7 | 0.2 | 0.1 | 0.2 | Binding of serum 6 to linear peptides of protein N of SARS-CoV Urbani [4]: 0.1; Binding of serum 37 to linear peptides of protein N of SARS-CoV Urbani [4]: 0.7; Binding of serum 62 to linear peptides of protein N of SARS-CoV Urbani [4]: 0.7; Binding of serum London to linear peptides of protein N of SARS-CoV Urbani [4]: 0.4; Binding of serum SARS-green to linear peptides of protein N of SARS-CoV Urbani [4]: 0.3; Binding of serum SARS-yellow to linear peptides of protein N of SARS-CoV Urbani [4]: 0.5 |
| LQNSMSGASADSTQA | 0.9 | 0.4 | 0.2 | 0.2 | – | – | – | – | 0.2 | 0.1 | 0.4 | 0.0 | 0.5 | 0.1 | 0.1 | 0.0 | 0.0 | 0.2 | 0.1 | 0.1 | Control Serum Blood-Bank Looped peptides [3]: 0.0; Control serum Blood-bank linear peptides [3]: 0.7; Control serum LUMC linear peptides [3]: 0.5; Control serum LUMC looped peptides [3]: 0.2; Binding of serum 6 to linear peptides of protein N of SARS-CoV Urbani [4]: 0.2; Binding of serum 37 to linear peptides of protein N of SARS-CoV Urbani [4]: 0.6; Binding of serum 62 to linear peptides of protein N of SARS-CoV Urbani [4]: 0.4; Binding of serum London to linear peptides of protein N of SARS-CoV Urbani [4]: 0.6; Binding of serum SARS-green to linear peptides of protein N of SARS-CoV Urbani [4]: 0.4; Binding of serum SARS-yellow to linear peptides of protein N of SARS-CoV Urbani [4]: 0.6 |
